# Key:
# [1] = system: Klebsiella pneumoniae; test: Antibacterial activity against Klebsiella pneumoniae clinical isolate assessed as inhibition of bacterial growth incubated for 24 hrs; type: functional
# [2] = system: Acinetobacter baumannii; test: Antibacterial activity against Acinetobacter baumannii clinical isolate assessed as inhibition of bacterial growth incubated for 24 hrs; type: functional
# [3] = system: Pseudomonas aeruginosa; test: Antibacterial activity against Pseudomonas aeruginosa clinical isolate assessed as inhibition of bacterial growth incubated for 24 hrs; type: functional
# [4] = system: Escherichia coli; test: Antibacterial activity against Escherichia coli ATCC 25922 assessed as inhibition of bacterial growth incubated for 24 hrs; type: functional
# [5] = system: Erythrocyte; test: Hemolytic activity in human Red blood cells assessed as concentration required for 5% hemolysis measured after 1.5 hrs by absorbance based assay; type: toxicity, cell-based
# [6] = system: Escherichia coli; test: Antibacterial activity against Escherichia coli clinical isolate assessed as inhibition of bacterial growth incubated for 24 hrs; type: functional
# [7] = system: Enterococcus faecium; test: Antibacterial activity against Enterococcus faecium ATCC 19434 assessed as inhibition of bacterial growth incubated for 24 hrs; type: functional
# [8] = system: Staphylococcus aureus; test: Antibacterial activity against Staphylococcus aureus ATCC 12600 assessed as inhibition of bacterial growth incubated for 24 hrs; type: functional
# [9] = system: Staphylococcus epidermidis; test: Antibacterial activity against Staphylococcus epidermidis ATCC 12228 assessed as inhibition of bacterial growth incubated for 24 hrs; type: functional
# [10] = system: Staphylococcus aureus; test: Antibacterial activity against Staphylococcus aureus ATCC 25923 assessed as inhibition of bacterial growth incubated for 24 hrs; type: functional
# [11] = system: Enterococcus faecalis; test: Antibacterial activity against vancomycin-resistant Enterococcus faecalis clinical isolate p1-2007225053 assessed as inhibition of bacterial growth incubated for 24 hrs; type: functional
# [12] = system: Pseudomonas aeruginosa; test: Antibacterial activity against Pseudomonas aeruginosa ATCC 27853 assessed as inhibition of bacterial growth incubated for 24 hrs; type: functional
# [13] = system: Staphylococcus aureus; test: Antibacterial activity against Staphylococcus aureus CMCC(B)26001 assessed as inhibition of bacterial growth incubated for 24 hrs; type: functional
# [14] = system: Staphylococcus aureus; test: Antibacterial activity against methicillin resistant Staphylococcus aureus clinical isolate assessed as inhibition of bacterial growth incubated for 24 hrs; type: functional
# [15] = system: Staphylococcus aureus; test: Antibacterial activity against Staphylococcus aureus clinical isolate assessed as inhibition of bacterial growth incubated for 24 hrs; type: functional
# [16] = system: Staphylococcus aureus; test: Antibacterial activity against Staphylococcus aureus CMCC(B)26003 assessed as inhibition of bacterial growth incubated for 24 hrs; type: functional
# [17] = Hemolytic activity in human Red blood cells at 256 ug/ml measured after 1.5 hrs by absorbance based assay relative to control; type: toxicity, cell-based, Erythrocyte; conditions: red blood cells (erythrocytes), at 256 µg/mL, read-out: Activity
# [18] = system: Streptococcus pneumoniae; test: Antibacterial activity against Streptococcus pneumoniae ATCC 6305 assessed as inhibition of bacterial growth incubated for 24 hrs; type: functional
# [19] = system: Staphylococcus aureus; test: Antibacterial activity against Staphylococcus aureus ATCC 6538 assessed as inhibition of bacterial growth incubated for 24 hrs; type: functional
# [20] = system: Staphylococcus aureus; test: Antibacterial activity against Staphylococcus aureus ATCC 29213 assessed as inhibition of bacterial growth incubated for 24 hrs; type: functional
# [21] = system: Staphylococcus aureus; test: Antibacterial activity against methicillin-resistant Staphylococcus aureus ATCC 43300 assessed as inhibition of bacterial growth incubated for 24 hrs; type: functional
# [22] = system: Enterococcus faecalis; test: Antibacterial activity against vancomycin-resistant Enterococcus faecalis clinical isolate p1-2007226001 assessed as inhibition of bacterial growth incubated for 24 hrs; type: functional
# [23] = system: Streptococcus pyogenes; test: Antibacterial activity against Streptococcus pyogenes ATCC 19615 assessed as inhibition of bacterial growth incubated for 24 hrs; type: functional
# [24] = system: Enterococcus faecalis; test: Antibacterial activity against Enterococcus faecalis clinical isolate assessed as inhibition of bacterial growth incubated for 24 hrs; type: functional
Structure (SMILES),MIC [1] [µg/mL],MIC [2] [µg/mL],MIC [3] [µg/mL],MIC [4] [µg/mL],HC5 [5] [µg/mL],MIC [6] [µg/mL],MIC [7] [µg/mL],MIC [8] [µg/mL],MIC [9] [µg/mL],MIC [10] [µg/mL],MIC [11] [µg/mL],MIC [12] [µg/mL],MIC [13] [µg/mL],MIC [14] [µg/mL],MIC [15] [µg/mL],MIC [16] [µg/mL],MIC [18] [µg/mL],MIC [19] [µg/mL],MIC [20] [µg/mL],MIC [24] [µg/mL],also measured
CCn1cc(C(=O)O)c(=O)c2cc(F)c(CC#N)cc21,2,0.5,0.5,2,> 10000,4,256,64,256,0.25,128,0.25,4,1,1,4,32,2,4,32,"hemolysis at 1.5 h, 256 ug/ml [17]: < 1%; MIC [21]: 128 µg/mL; MIC [22]: 128 µg/mL; MIC [23]: 1 µg/mL"
CCCCn1cc(C(=O)O)c(=O)c2cc(F)c(CC#N)cc21,1,256,0.5,0.5,,4,,,,0.25,,4,,0.5,8,,,,8,64,
O=C(O)Cc1cc2c(cc1F)c(=O)c(C(=O)O)cn2Cc1ccccc1Cl,0.5,32,64,8,,32,,,,16,,4,,32,32,,,,8,32,
CCCCCCCCn1cc(C(=O)O)c(=O)c2cc(F)c(CC#N)cc21,256,256,2,256,258,0.5,128,32,128,1,256,256,2,256,256,2,64,64,256,256,MIC [21]: 64 µg/mL; MIC [22]: 128 µg/mL; MIC [23]: 2 µg/mL
N#CCc1cc2c(cc1F)c(=O)c(C(=O)O)cn2Cc1ccc(Cl)c(Cl)c1,16,0.5,0.5,2,,8,,,,0.25,,2,,256,256,,,,2,256,
Cc1ccc(Cn2cc(C(=O)O)c(=O)c3cc(F)c(CC#N)cc32)cc1,256,256,0.5,0.25,,256,,,,0.25,,4,,8,256,,,,256,4,

# Source: ChEMBL document CHEMBL5506059, “Cyanomethylquinolones as a New Class of Potential Multitargeting Broad-Spectrum Antibacterial Agents” (J Med Chem, 2024)
